Assay results: publication PMC12916490 (Molecular Psychiatry, 2025)

Legend:
C57BL/6 J mice [1] = experiment: Locomotor activity in mice (dose-response sessions); type: in vivo, mouse; settings: 30-min session, mean ± SEM
Method: (§1) Behavioral studies were conducted as previously described with minor modifications. Male C57BL/6 J mice (The Jackson Laboratory #000664, 24 mice/drug) were purchased at 8 weeks old, group housed for acclimation (3–5 per cage for 1–2 weeks) under a 12:12 light:dark cycle (07:00 local time = lights on), with ad libitum access to food and water at the NIDA IRP facilities in Baltimore, MD, USA. All experiments were approved by the NIDA IRP Animal Care and Use Committee. After acclimation to the vivarium facilities, each mouse was briefly anesthetized with isoflurane and a temperature transponder (14 × 2 mm, model IPTT-300, Bio Medic Data Systems, Inc., Seaford, DE, USA) was implanted subcutaneously (s.c.) on the back, posterior to the shoulder blades. After the implant, mice were single housed and allowed one week recovery prior to the start of experiments. […] Drugs were randomly assigned and administered s.c. as the weight of the form used at an injection volume of 0.01 mL/g body weight.
(§2) During experimental testing, mice were tested once every 1–2 weeks to avoid potential tolerance to behavioral effects of the test drugs and were tested 2–3 times in total per drug. Each test session began with a brief 5 min acclimation period to the testing arenas, followed by recording baseline body temperature using a handheld wand that was sensitive to the signals emitted from the s.c. transponder. After this, mice were injected s.c. with appropriate doses of test drug and returned to the chambers for a 30-min test session. During the dose-response sessions, locomotor activity was continuously recorded using open field chambers with photobeam arrays (Coulbourn Instruments, Holliston, MA, USA) that were modified with cylindrical inserts and custom floor panels that also allowed video recordings of each mouse to later quantify HTR activity (GoPro Hero 7 camera; 960p resolution at 120 frames per second). Videos for each mouse were analyzed post session using commercially available software used to quantify HTR as previously described.
(§3) Data analysis was performed with Prism software (version 10.1.2, GraphPad Software, Boston, MA, USA). The IC50 values from the radioligand binding assays were determined by nonlinear regression, using three independent concentration-response curves fitted to a one-site model. The Cheng-Prusoff equation was used to calculate Kᵢ values for the competing ligands. EC50 values were determined by applying nonlinear regression to concentration-response curves. Bias factors (β) were calculated based on the relative intrinsic activity approach. More detailed information can be found in the Supplementary information. Mean values for total number of HTR, change in body temperature from pre to post session (Δ°C), and total distance traveled (cm) for each drug dose were compared (p < 0.05) via Welch’s ANOVA with Dunnett’s T3 post test, comparing all doses to respective vehicle controls (0 mg/kg). Welch’s ANOVA with Dunnett’s T3 post test was also used to compare drug concentrations, but the data were compared to DOM in this case. Dose–response relationships for HTR and locomotor activities were plotted using bell-shaped curve fits, while temperature change data were plotted using four-parameter non-linear regression curve fits. The ascending phase of the HTR curve for each drug was used to determine ED50 potency values from four parameter non-linear regression fits. For combined DOM and DOAM administration, the plasma, brain tissue, and brain dialysate drug concentrations were compared using paired t-tests (p < 0.05). Ratios were compared using Holm-Sidak’s post hoc test following a repeated-measures one-way ANOVA (F (1.709, 6.835) = 70.80; p < 0.0001).
(§4) Locomotor activity and body temperature were also assessed to monitor other pharmacological effects of the drugs that may impact the HTR. […]

h5-HT2A = h5-HT2A (Homo sapiens, UniProt P28223); experiment: biochemical; type: binding; set-up: expressed in transfected cells; host or cells: HEK 293 cells (membrane preparation)
h5-HT2A, sequence (P28223 whole entry, looked up): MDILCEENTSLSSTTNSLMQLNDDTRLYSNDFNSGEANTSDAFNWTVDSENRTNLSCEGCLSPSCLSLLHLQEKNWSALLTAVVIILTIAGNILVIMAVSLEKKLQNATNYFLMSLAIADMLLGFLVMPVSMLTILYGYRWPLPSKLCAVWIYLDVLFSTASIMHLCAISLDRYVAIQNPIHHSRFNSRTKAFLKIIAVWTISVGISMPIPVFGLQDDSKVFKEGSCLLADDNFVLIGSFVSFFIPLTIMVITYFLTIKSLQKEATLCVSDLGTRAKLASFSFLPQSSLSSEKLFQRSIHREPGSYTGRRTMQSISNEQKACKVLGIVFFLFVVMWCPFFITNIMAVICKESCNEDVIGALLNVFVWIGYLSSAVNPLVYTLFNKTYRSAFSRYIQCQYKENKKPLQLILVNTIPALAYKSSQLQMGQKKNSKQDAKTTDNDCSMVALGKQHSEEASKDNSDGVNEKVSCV

hTAAR1 = molecular target: T1, hTAAR1 (Homo sapiens, UniProt Q96RJ0); experiment: Functional activity at human TAAR1 (cAMP); type: cell-based
T1 construct: expressed in transfected cells
T1 sequence (Q96RJ0 1-339): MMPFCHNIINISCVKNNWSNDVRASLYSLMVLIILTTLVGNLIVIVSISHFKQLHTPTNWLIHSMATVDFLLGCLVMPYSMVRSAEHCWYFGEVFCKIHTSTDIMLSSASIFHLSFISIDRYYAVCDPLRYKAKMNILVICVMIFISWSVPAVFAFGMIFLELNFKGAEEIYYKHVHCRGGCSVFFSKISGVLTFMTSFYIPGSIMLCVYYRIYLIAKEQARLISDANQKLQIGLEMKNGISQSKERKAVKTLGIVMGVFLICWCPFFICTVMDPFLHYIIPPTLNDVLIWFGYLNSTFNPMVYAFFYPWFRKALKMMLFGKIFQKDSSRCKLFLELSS
Method: Activity at the human trace amine-associated receptor 1 (hTAAR1) was determined as previously described. More information can be found in the Supplementary information.
Then, the obtained RA values were used to calculate the bias factor (β) for each pathway combination. […]
pathway 1 over pathway 2. Brown-Forsythe and Welch ANOVA analyses were applied to estimate the statistical probability that β is different from zero.
3.3 Functional activity at the human TAAR1 […]
receptor 1 (hTAAR1) were generated by transfection with Lipofectamine 2000 (Invitrogen, Zug, Switzerland). The cells were harvested and pelleted by centrifugation at 900 rpm for 3 min at room temperature. The supernatant was then removed, and the cell pellet was resuspended in fresh culture medium. The cells were plated into 96 -well plates (100 μL, containing 80,000 cells per well) and incubated […]
The culture medium was removed, and the cells were washed once with 50 μL phosphate buffered saline without Ca2+ and Mg2+. Thereafter, 90 μL of Krebs -Ringer bicarbonate buffer (Sigma- […]
to 10 μM cAMP) was included on each plate. In addition, a reference plate containing RO5256390, β-phenylethylamine, and p-tyramine was included in each experiment. Test compound solution, β-phenylethylamine (as maximal response), or basal control were added at a volume of 30 μL, and the cells […]
Afterwards, the cells were lysed with 50 μL of detection mix solution […]
under heavy shaking. Fluorescence was then measured.
3.4 Plasma and brain tissue analysis
3.4.1 Analytical standards […]
to spike blank plasma or tissue homogenate at calibration standards of 1, 2.5, 5, 10, 25, 50, 100, 250, and […]
Extraction was performed by protein precipitation with 150 µL of acetonitrile added to 50 µL plasma in a 2-mL centrifuge tube. The samples were then vortexed for 10 s and shaken for 3 min at […]

C57BL/6 J mice [2] = experiment: Head-twitch response (HTR) dose-response in mice, 30-min session; type: in vivo, mouse; settings: for HTR (count/30 min): mean ± SEM
Method: as §1, §2, §3, §4

COc1cc(CC(C)N)c(OC)cc1C (stereo not shown) [DOM, 4-methyl-2,5-dimethoxyamphetamine]
Locomotor activity (distance traveled) (C57BL/6 J mice [1]; 0.03 mg/kg s.c.): 2,696 ± 154 cm
Locomotor activity (distance traveled) (C57BL/6 J mice [1]; 0.1 mg/kg s.c.): 2,522 ± 203 cm
Locomotor activity (distance traveled) (C57BL/6 J mice [1]; 0.3 mg/kg s.c.): 3,051 ± 367 cm
Locomotor activity (distance traveled) (C57BL/6 J mice [1]; 1 mg/kg s.c.): 4,272 ± 215 cm
Locomotor activity (distance traveled) (C57BL/6 J mice [1]; 3 mg/kg s.c.): 3,556 ± 278 cm
Locomotor activity (distance traveled) (C57BL/6 J mice [1]; 10 mg/kg s.c.): 2,186 ± 443 cm
Locomotor activity (distance traveled) (C57BL/6 J mice [1]; 30 mg/kg s.c.): 606 ± 47 cm
Ki (h5-HT2A): 66 nM
EC50 (hTAAR1): > 30000 nM
HTR (count/30 min) (C57BL/6 J mice [2]; 0.03 mg/kg s.c.): 10.2 ± 1.9 count
HTR (count/30 min) (C57BL/6 J mice [2]; 0.1 mg/kg s.c.): 23.4 ± 2.1 count
HTR (count/30 min) (C57BL/6 J mice [2]; 0.3 mg/kg s.c.): 39.0 ± 3.3 count
HTR (count/30 min) (C57BL/6 J mice [2]; 1 mg/kg s.c.): 90.0 ± 4.4 count
HTR (count/30 min) (C57BL/6 J mice [2]; 3 mg/kg s.c.): 119.2 ± 9.7 count
HTR (count/30 min) (C57BL/6 J mice [2]; 10 mg/kg s.c.): 88.0 ± 18.1 count
HTR (count/30 min) (C57BL/6 J mice [2]; 30 mg/kg s.c.): 13.7 ± 3.9 count
ED50 (C57BL/6 J mice [2]; Mus musculus, sc, 0.5 h, read-out: HTR in mice ED50 (95% CI), s.c., 30 min session, ascending phase of dose-response curve): 0.66 mg/kg
Fold higher total HTR counts of DOM vs DOAM (C57BL/6 J mice [2]; mouse, in vivo): 2.6 fold
HTR in mice Emax (C57BL/6 J mice [2]; s.c., 30 min session): 119 total HTR count
HTR in mice Maximum rate (C57BL/6 J mice [2]; s.c., 30 min session): 24 HTR count/5 min
Peak HTR rate (C57BL/6 J mice [2]; s.c., 30 min session): 24 events/5 min
Time of peak HTR rate post drug administration (C57BL/6 J mice [2]; s.c., 30 min session): 5 to 10 min
